System: biochemically recurrent prostate cancer
Test: CONDOR: 18F-DCFPyL PET/CT correct localization rate, detection rate and PPV vs composite standard of truth
Assay type: in vivo, men
Source text: 1. Correct Localization Rate (CLR), defined as percentage of subjects with a one-to-one correspondence between localization of at least one lesion identified on ^18F-DCFPyL PET/CT imaging and the composite truth standard, defined as either evaluable histopathology, informative correlative imaging, or PSA response after radiation therapy.
Men ≥18 years of age with a rising PSA after definitive PCa therapy and negative or equivocal imaging were enrolled. […] The primary endpoint of this study was the correct localization rate (CLR). CLR is defined as the percentage of patients with a one-to-one correspondence between localization of at least one lesion identified by ^18F-DCFPyL PET/CT and a composite standard of truth (SOT). SOT was determined by two central readers and included either histopathology or another standard imaging modality (i.e., fluciclovine-PET/CT, CT/MRI, bone scan) or alternatively, by a post-treatment PSA change for irradiated lesions.
Methods: Men ≥18 years—with rising PSA after definitive therapy and negative or equivocal standard of care imaging (e.g., CT/MRI, bone scintigraphy) were enrolled. A single 9 mCi (333 MBq)±20% dose of PyL was injected, followed by PET/CT 1-2 hours later. Primary endpoint was correct localization rate (CLR), defined as percentage of pts with a 1:1 correspondence between at least one lesion identified by PyL-PET/CT and the composite standard of truth: pathology, correlative imaging, or PSA response. […] The secondary endpoint, impact of PyL-PET/CT on clinical management of pts was based on the treating physician's documented clinical plans before and after PyL-PET/CT.
Men with a PSA ≥0.2 ng/mL after surgery or ≥2 ng/mL above the nadir after radiation therapy were eligible for enrollment. The primary endpoint was the correct localization rate (CLR) defined as positive predictive value with an additional requirement of anatomical lesion colocalization between ^18F-DCFPyL-PET/CT and a composite standard of truth (SOT). The SOT consisted of, in descending priority: 1) histopathology, 2) correlative imaging findings determined by two central readers, or 3) post-radiation PSA response. […] The impact of ^18F-DCFPyL-PET/CT as defined by change in management intent, and safety were evaluated as secondary endpoints.
Patients voided prior to imaging, and PET and non-contrast CT images were acquired from the mid-thigh through the skull vertex. All ^18F-DCFPyL-PET/CT scans were submitted to the central imaging core laboratory for assessment. Patients with positive ^18F-DCFPyL-PET/CT scans based on local interpretation were scheduled for post-^18F-DCFPyL-PET/CT follow-up to verify suspected lesion(s) based on a composite standard of truth (SOT). (FIG. 16)
Because of the expected absence of an amenable lesion for histologic verification in all patients, a composite SOT was employed based on assessment performed or initiated within 60 days following ^18F-DCFPyL-PET/CT. These reference standards were defined (in descending priority) as (1) evaluable histopathology results from prostatectomy, salvage pelvic lymph node dissection or biopsy; (2) imaging findings using ^18F-fluciclovine or ^11C-choline PET, or focused MRI or CT; or (3) if neither of the above was available or informative, confirmed PSA response up to 9 months post-radiation initiation (with no concomitant ADT) of all PET-positive foci. PSA response was defined as PSA decline by ≥50% from baseline that was confirmed on repeat measurement within 4 weeks, based on central laboratory results.
A central imaging core laboratory was employed to independently manage image handling, reader training, reader sessions and data collection. […] The readers had no access to any clinical information, including PSA values or other imaging available for a patient. […]

[1] = SOT Correlative imaging n=100, Reader 1
[2] = SOT Correlative imaging n=100, Reader 2

## O=C(O)CC[C@H](NC(=O)N[C@@H](CCCCNC(=O)c1ccc([18F])nc1)C(=O)O)C(=O)O [18F-DCFPyL, 2-(3-{1-carboxy-5-[(6-[^18F]fluoro-pyridine-3-carbonyl)-amino]-pentyl}ureido)-pentanedioic acid]
142/208
  pts with PSMA-avid lesion(s), local radiology assessment: 69.3%
Extra-pelvic, Reader 1 (CONDOR Reader 4 in Table 17)
  PPV by anatomic region: 33 (67.3) %
Extra-pelvic, Reader 1 (CONDOR Reader 4 in Table 17), listed as PyLARIFY
  PPV by anatomic region: 67%
Extra-pelvic, Reader 2 (CONDOR Reader 5 in Table 17)
  PPV by anatomic region: 31 (67.4) %
Extra-pelvic, Reader 2 (CONDOR Reader 5 in Table 17), listed as PyLARIFY
  PPV by anatomic region: 67%
Extra-pelvic, Reader 3 (CONDOR Reader 6 in Table 17)
  PPV by anatomic region: 30 (69.8) %
Extra-pelvic, Reader 3 (CONDOR Reader 6 in Table 17), listed as PyLARIFY
  PPV by anatomic region: 70%
PSA 0.5-<1.0 ng/mL, Reader 1
  CLR by baseline PSA: 12 (75.0) %
  Detection rate by baseline PSA: 21 (56.8) %
PSA 0.5-<1.0 ng/mL, Reader 2
  CLR by baseline PSA: 10 (76.9) %
  Detection rate by baseline PSA: 45.9%
PSA 0.5-<1.0 ng/mL, Reader 3
  CLR by baseline PSA: 11 (73.3) %
  Detection rate by baseline PSA: 19 (51.4) %
PSA 1.0-<2.0 ng/mL, Reader 1
  CLR by baseline PSA: 17 (85.0) %
  Detection rate by baseline PSA: 24 (72.7) %
PSA 1.0-<2.0 ng/mL, Reader 2
  CLR by baseline PSA: 14 (77.8) %
  Detection rate by baseline PSA: 22 (66.7) %
PSA 1.0-<2.0 ng/mL, Reader 3
  CLR by baseline PSA: 15 (83.3) %
  Detection rate by baseline PSA: 19 (57.6) %
PSA 2.0 < 5.0 ng/mL, Reader 1
  CLR by baseline PSA: 21 (91.3) %
  Detection rate by baseline PSA: 28 (84.8) %
PSA 2.0 < 5.0 ng/mL, Reader 2
  CLR by baseline PSA: 24 (92.3) %
  Detection rate by baseline PSA: 29 (87.9) %
PSA 2.0 < 5.0 ng/mL, Reader 3
  CLR by baseline PSA: 20 (90.9) %
  Detection rate by baseline PSA: 27 (81.8) %
PSA <0.5 ng/mL, Reader 1
  CLR by baseline PSA: 11 (73.3) %
  Detection rate by baseline PSA: 29 (42.0) %
PSA <0.5 ng/mL, Reader 2
  CLR by baseline PSA: 76.9%
  Detection rate by baseline PSA: 23 (33.3) %
PSA <0.5 ng/mL, Reader 3
  CLR by baseline PSA: 11 (73.3) %
  Detection rate by baseline PSA: 25 (36.2) %
PSA ≥5 ng/mL, Reader 1
  CLR by baseline PSA: 27 (96.4) %
  Detection rate by baseline PSA: 29 (96.7) %
PSA ≥5 ng/mL, Reader 2
  CLR by baseline PSA: 28 (96.6) %
  Detection rate by baseline PSA: 29 (96.7) %
PSA ≥5 ng/mL, Reader 3
  CLR by baseline PSA: 26 (96.3) %
  Detection rate by baseline PSA: 27 (90.0) %
Pelvic, Reader 1 (CONDOR Reader 4 in Table 17)
  PPV by anatomic region: 41 (67.2) %
Pelvic, Reader 1 (CONDOR Reader 4 in Table 17), listed as PyLARIFY
  PPV by anatomic region: 67%
Pelvic, Reader 2 (CONDOR Reader 5 in Table 17)
  PPV by anatomic region: 40 (72.7) %
Pelvic, Reader 2 (CONDOR Reader 5 in Table 17), listed as PyLARIFY
  PPV by anatomic region: 73%
Pelvic, Reader 3 (CONDOR Reader 6 in Table 17)
  PPV by anatomic region: 39 (70.9) %
Pelvic, Reader 3 (CONDOR Reader 6 in Table 17), listed as PyLARIFY
  PPV by anatomic region: 71%
Prostatic (prostate bed), Reader 1 (CONDOR Reader 4 in Table 17), listed as PyLARIFY
  PPV by anatomic region: 80%
Prostatic (prostate bed), Reader 2 (CONDOR Reader 5 in Table 17)
  PPV by anatomic region: 30 (83.3) %
Prostatic (prostate bed), Reader 2 (CONDOR Reader 5 in Table 17), listed as PyLARIFY
  PPV by anatomic region: 83%
Prostatic (prostate bed), Reader 3 (CONDOR Reader 6 in Table 17)
  PPV by anatomic region: 27 (75.0) %
Prostatic (prostate bed), Reader 3 (CONDOR Reader 6 in Table 17), listed as PyLARIFY
  PPV by anatomic region: 75%
SOT CT n=6, Reader 1
  CLR (TP/TP + FP): (80.0%)
  Negative PyL Scan: (16.7%)
  Positive PyL Scan: (83.3%)
SOT CT n=6, Reader 2
  CLR (TP/TP + FP): (100.0%)
  Negative PyL Scan: (16.7%)
  Positive PyL Scan: (83.3%)
SOT CT n=6, Reader 3
  CLR (TP/TP + FP): (80.0%)
  Negative PyL Scan: (16.7%)
  Positive PyL Scan: (83.3%)
[1]
  CLR (TP/TP + FP): (88.0%)
  Negative PyL Scan: (18.0%)
  PPV (TP/TP + FP): (89.0%)
  Positive PyL Scan: (82.0%)
[2]
  CLR (TP/TP + FP): (88.6%)
  Negative PyL Scan: (24.0%)
  PPV (TP/TP + FP): (89.5%)
  Positive PyL Scan: (76.0%)

Reference: patent US20230274811A1, “METHODS OF MAKING PROSTATE CANCER TREATMENT DECISIONS” (Progenics Pharmaceuticals, Inc., priority 2020, published 2023)
